In patent US11000033B2, “Ketone or oxime compound, and herbicide” (NISSAN CHEMICAL CORPORATION, priority 2014, dated 2021):

What was measured:
Assay type in all cases: in vivo
Scirpus juncoides [1] = experiment: Test Example 1: herbicidal activity, application before weed generation in submerged conditions (symbol B); details: application herbicide amount 320 g/ha
Procedure, shortened: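 0–5 visual score, 3 wk post-application. Submerged pots, alluvial soil, water 4 cm; seeds sown mixed, rice at 2.5 leaves transplanted. Emulsion diluted to predetermined dose, applied to water surface at sowing. 25–30 °C greenhouse.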

[2] = test system: Echinochloa oryzacola Vasing.; experiment: Test Example 2: herbicidal activity, application during weed generation in submerged conditions (symbol A); details: Table 23; application herbicide amount 320 g/ha; grade 0-5 by criteria of Test Example 1
Procedure, shortened: (§1)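 Scoring of herbicidal effect took place 3 weeks after treatment, using the criteria of the earlier test. Treatment was water-surface application of diluted emulsifiable compound at a set dose. Plants were at one- to two-leaf stage in submerged alluvial soil (4 cm depth), greenhouse 25-30° C.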

Scirpus juncoides [3] = experiment: Test Example 2: herbicidal activity, application during weed generation in submerged conditions (symbol B); details: Table 23; application herbicide amount 320 g/ha; grade 0-5 by criteria of Test Example 1
Procedure, shortened: as §1

[4] = test system: Echinochloa crus-galli var. crus-galli; experiment: Test Example 3: herbicidal effect by foliage application, Wagner pot (symbol H); details: application herbicide amount 320 g/ha; for H (Echinochloa crus-galli var. crus-galli) herbicidal effect grade: Table 24
Procedure, shortened: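 Foliar spray of a water-diluted emulsion at a predetermined herbicide amount, applied to 14-day-old plants. Seedlings were raised in flooded alluvial soil (0.1–0.5 cm water) at 25–30 °C in a greenhouse. Injury was rated after 3 weeks against fixed criteria.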

Avena fatua = experiment: Test Example 4: herbicidal effect by soil treatment (symbol I)
Procedure, shortened: (§2)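 Seeds were sown in sterilized diluvial soil, covered with about 1.5 cm of soil, and the soil surface was sprayed with a water-diluted emulsion of the compound at a predetermined rate. Plants grew in a greenhouse at 25° C. to 30° C.; effects were scored visually 3 weeks after application.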

Chenopodium album [5] = experiment: Test Example 4: herbicidal effect by soil treatment (symbol O)
Procedure, shortened: as §2

Stellaria media = experiment: Test Example 4: herbicidal effect by soil treatment (symbol P)
Procedure, shortened: as §2

beet = experiment: Test Example 4: effect on crop by soil treatment (symbol f); details: for f: beet, effect grade on crop: 320 g/ha
Procedure, shortened: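 The test used sterilized diluvial soil. Seed was set down in spots and overlaid with about 1.5 cm of soil before growth in a greenhouse kept at 25° C. to 30° C.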

Digitaria ciliaris = experiment: Test Example 5: herbicidal effect by foliage application, plastic box (symbol F); details: 320 g/ha, 3 weeks after application
Procedure, shortened: (§3)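 After sowing into sterilized diluvial soil and growing two weeks under glass at 25° C. to 30° C., seedlings receive a uniform foliar spray of diluted emulsion. Damage is judged visually three weeks on.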

Chenopodium album [6] = experiment: Test Example 5: herbicidal effect by foliage application, plastic box (symbol O); details: 320 g/ha, 3 weeks after application
Procedure, shortened: as §3

rice plant = experiment: Test Example 5: effect on crop by foliage application, plastic box (symbol b); details: 320 g/ha, 3 weeks after application
Procedure, shortened: (§4)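 Greenhouse test at 25° C. to 30° C. Seeds of crops and weeds were spot-sown in boxes of sterilized diluvial soil under roughly 1.5 cm soil cover, then grown for foliage treatment.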

rapeseed = experiment: Test Example 5: effect on crop by foliage application, plastic box (symbol g); details: 320 g/ha, 3 weeks after application
Procedure, shortened: as §4

[7] = application herbicide amount 320 g/ha

| SMILES | Herbicidal effect grade, B: Scirpus juncoides (Scirpus juncoides [1]) | Herbicidal effect grade, A: Echinochloa oryzacola Vasing. [2] | Herbicidal effect grade, B: Scirpus juncoides (Scirpus juncoides [3]) | herbicidal effect on H (Echinochloa crus-galli var. crus-galli), grade 0-5 [4] | I: Avena fatua, herbicidal effect grade (Avena fatua; 320 g/ha) | O: Chenopodium album, herbicidal effect grade (Chenopodium album [5]; 320 g/ha) | P: Stellaria media, herbicidal effect grade (Stellaria media; 320 g/ha) | f: beet, effect grade on crop (beet) | F: Digitaria ciliaris, herbicidal effect (criteria 0-5) (Digitaria ciliaris) | O: Chenopodium album, herbicidal effect (criteria 0-5) (Chenopodium album [6]) | b: directly sowed rice plant, effect on crop (criteria 0-5) (rice plant) | g: rapeseed, effect on crop (criteria 0-5) (rapeseed) | B (Scirpus juncoides) herbicidal effect grade (Scirpus juncoides [1]) | H (Echinochloa crus-galli var. crus-galli) herbicidal effect grade [4] | F: Digitaria ciliaris, herbicidal effect grade (Digitaria ciliaris) | O: Chenopodium album, herbicidal effect grade (Chenopodium album [6]) | b: directly sowed rice plant, effect on crop grade (rice plant) | g: rapeseed, effect on crop grade (rapeseed) | also measured |
| --- | --- | --- | --- | --- | --- | --- | --- | --- | --- | --- | --- | --- | --- | --- | --- | --- | --- | --- | --- |
| CC(CC1CC(O)=C(c2c(C)cc(C)cc2C)C1=O)=NOCC(N)=O (stereo not drawn) [1-124] | 0 (Herbicidal ratio of 5% or lower (almost no effect)) | 2 (Herbicidal ratio of 20% or higher and lower than 40%) | 0 (Herbicidal ratio of 5% or lower (almost no effect)) | 5 (Herbicidal ratio of 90% or more (almost completely withered)) | 0 (Herbicidal ratio of 5% or lower (almost no effect)) | 0 (Herbicidal ratio of 5% or lower (almost no effect)) | 0 (Herbicidal ratio of 5% or lower (almost no effect)) | 0 (Herbicidal ratio of 5% or lower (almost no effect)) | 0 (Herbicidal ratio of 5% or lower (almost no effect)) | 3 (Herbicidal ratio of 40% or higher and lower than 70%) | 3 (Herbicidal ratio of 40% or higher and lower than 70%) | 4 (Herbicidal ratio of 70% or higher and lower than 90%) |  |  |  |  |  |  |  |
| CCC(=O)CC1CC(O)=C(c2c(C)cc(Br)cc2OC)C1=O (racemic) [14-002] |  | 5 (Herbicidal ratio of 90% or more (almost completely withered)) | 0 (Herbicidal ratio of 5% or lower (almost no effect)) |  |  |  |  |  |  |  |  |  | 1 (Herbicidal ratio of 5% or higher and lower than 20%) | 5 (Herbicidal ratio of 90% or more (almost completely withered)) | 5 (Herbicidal ratio of 90% or more (almost completely withered)) | 0 (Herbicidal ratio of 5% or lower (almost no effect)) | 4 (Herbicidal ratio of 70% or higher and lower than 90%) | 4 (Herbicidal ratio of 70% or higher and lower than 90%) | I: Avena fatua, herbicidal effect grade (Avena fatua; [7]): 0 (Herbicidal ratio of 5% or lower (almost no effect)); O: Chenopodium album, herbicidal effect grade (Chenopodium album [5]; [7]): 0 (Herbicidal ratio of 5% or lower (almost no effect)); P: Stellaria media, herbicidal effect grade (Stellaria media; [7]): 0 (Herbicidal ratio of 5% or lower (almost no effect)); f: beet, effect on crop grade (beet; [7]): 0 (Herbicidal ratio of 5% or lower (almost no effect)) |
| CC(CC1CC(O)=C(c2c(C)cc(-c3ccc(Cl)cc3)cc2C)C1=O)=NOCC(F)(F)F (stereo not drawn) [9-024] |  | 3 (Herbicidal ratio of 40% or higher and lower than 70%) | 3 (Herbicidal ratio of 40% or higher and lower than 70%) |  |  |  |  |  |  |  |  |  | 4 (Herbicidal ratio of 70% or higher and lower than 90%) | 5 (Herbicidal ratio of 90% or more (almost completely withered)) | 5 (Herbicidal ratio of 90% or more (almost completely withered)) | 4 (Herbicidal ratio of 70% or higher and lower than 90%) | 5 (Herbicidal ratio of 90% or more (almost completely withered)) | 4 (Herbicidal ratio of 70% or higher and lower than 90%) | Herbicidal effect grade, I: Avena fatua (Avena fatua; [7]): 3 (Herbicidal ratio of 40% or higher and lower than 70%); Herbicidal effect grade, O: Chenopodium album (Chenopodium album [5]; [7]): 0 (Herbicidal ratio of 5% or lower (almost no effect)); Herbicidal effect grade, P: Stellaria media (Stellaria media; [7]): 4 (Herbicidal ratio of 70% or higher and lower than 90%); Effect on crop grade, f: beet (beet; [7]): 0 (Herbicidal ratio of 5% or lower (almost no effect)) |
| CON=C(C)CC1CC(OC(=O)c2nc(C)sc2C)=C(c2c(C)cc(C)cc2C)C1=O (stereo not drawn) [1-101] | 5 (Herbicidal ratio of 90% or more (almost completely withered)) | 5 (Herbicidal ratio of 90% or more (almost completely withered)) | 5 (Herbicidal ratio of 90% or more (almost completely withered)) | 5 (Herbicidal ratio of 90% or more (almost completely withered)) | 3 (Herbicidal ratio of 40% or higher and lower than 70%) | 0 (Herbicidal ratio of 5% or lower (almost no effect)) | 0 (Herbicidal ratio of 5% or lower (almost no effect)) | 3 (Herbicidal ratio of 40% or higher and lower than 70%) | 5 (Herbicidal ratio of 90% or more (almost completely withered)) | 3 (Herbicidal ratio of 40% or higher and lower than 70%) | 5 (Herbicidal ratio of 90% or more (almost completely withered)) | 5 (Herbicidal ratio of 90% or more (almost completely withered)) |  |  |  |  |  |  |  |
| CON=C(CC1CC(O)=C(c2c(C)cc(C)cc2C)C1=O)c1ccc(F)cc1 (stereo not drawn) [1-133] | 0 (Herbicidal ratio of 5% or lower (almost no effect)) | 1 (Herbicidal ratio of 5% or higher and lower than 20%) | 0 (Herbicidal ratio of 5% or lower (almost no effect)) | 3 (Herbicidal ratio of 40% or higher and lower than 70%) | 0 (Herbicidal ratio of 5% or lower (almost no effect)) | 0 (Herbicidal ratio of 5% or lower (almost no effect)) | 0 (Herbicidal ratio of 5% or lower (almost no effect)) | 0 (Herbicidal ratio of 5% or lower (almost no effect)) | 0 (Herbicidal ratio of 5% or lower (almost no effect)) | 0 (Herbicidal ratio of 5% or lower (almost no effect)) | 1 (Herbicidal ratio of 5% or higher and lower than 20%) | 4 (Herbicidal ratio of 70% or higher and lower than 90%) |  |  |  |  |  |  |  |
| CON=C(C)CC1CC(OC(=O)C#C[Si](C)(C)C)=C(c2c(C)cc(C)cc2C)C1=O (stereo not drawn) [1-096] | 5 (Herbicidal ratio of 90% or more (almost completely withered)) | 5 (Herbicidal ratio of 90% or more (almost completely withered)) | 5 (Herbicidal ratio of 90% or more (almost completely withered)) | 5 (Herbicidal ratio of 90% or more (almost completely withered)) | 3 (Herbicidal ratio of 40% or higher and lower than 70%) | 0 (Herbicidal ratio of 5% or lower (almost no effect)) | 0 (Herbicidal ratio of 5% or lower (almost no effect)) | 0 (Herbicidal ratio of 5% or lower (almost no effect)) | 5 (Herbicidal ratio of 90% or more (almost completely withered)) | 2 (Herbicidal ratio of 20% or higher and lower than 40%) | 5 (Herbicidal ratio of 90% or more (almost completely withered)) | 4 (Herbicidal ratio of 70% or higher and lower than 90%) |  |  |  |  |  |  |  |
